Test results from US20240376087A1, “PYRAZOLE AMIDE BASED COMPOUNDS AND USES AGAINST BREAST CANCER THEREOF” (COUNCIL OF SCIENTIFIC AND INDUSTRIAL RESEARCH AN INDIAN …, priority 2021, published 2024).
Entries after “also recorded” stand apart in the source; their conditions may differ.

Key:
MDA MB 231 cells [1] = test: Morphological analysis by phase contrast and electron microscopy; assay type: cell-based, human; conditions: MDA MB 231, phase contrast and SEM
Description: Morphological analysis of the cells treated with NIIST-AC-1 at different concentrations were monitored using phase contrast microscope Nikon EclipseTS100 (Nikon Instruments Inc., Melville, NY, USA, Magnification 20×) and SEM (Zeiss EVO 18 Special Edition) at ×2k and ×5k magnification.

MDA MB 231 cells [2] = test: Measurement of mitochondrial membrane potential (JC-1); assay type: cell-based, human; conditions: MDA MB 231, JC-1, 24 h
Experimental: The cells were then treated with various concentrations of NIIST-AC-1 for 24 h. After removing the spent medium, 100 μl of freshly prepared JC-1 stain was added and samples were then incubated for 20 min in a CO2 incubator at 37° C. Immediately after the incubation, cells were observed under a spinning disc fluorescent microscope (BD Pathway 855), and images were taken using the software BD Atto Vision version 1.6.

caspase-9 = test: Assay of caspase 9 (fluorometric, cell lysates); assay type: cell-based, human; conditions: MDA MB 231 cell lysates, LEHD-AFC
Experimental: (§1) The activities of the initiator caspase-9 and downstream executioner caspase-3 were measured using Fluorometric Assay Kit. The caspase activity in the cell lysates of control and treated cells were measured by using the fluorescent substrate DEVD-AFC (for caspase-3 activity) and LEHD-AFC (for caspase-9 activity). Samples were read at 400-nm excitation filter and 505-nm emission filter in a fluorescent microplate reader (BioTek Synergy HT) using Gen5™ ver 1.05.11 software, and the results were expressed as relative units in terms of fluorescence.

MDA MB 231 cells [3] = test: RNA sequencing whole transcriptome analysis and gene set enrichment; assay type: cell-based, human
Experimental: Toral RNA was isolated from the cells using RNeasy mini kit. 15 μg of cellular RNA was quality assessed (Bioanalyzer from Agilent Technologies) and used for mRNA library preparation. The mRNAs were fragmented, and the first strand of cDNA was synthesized from the cleaved RNA using random primers followed by second strand cDNA synthesis. The purified cDNA templates were enriched by PCR amplification to generate cDNA libraries. The developed libraries were presented to RNA sequencing facility and two rapid single-read 50 illumina HiSeq sequencing runs were performed. Raw reads from separate lanes of the same sample were merged for mapping. RNA sequencing was performed at Eurofins Genomics India Pvt. Ltd., Bengaluru 560048, Karnataka, India.
The output raw FASTQ files were analyzed using various tools of Galaxy platform to extract the differentially expressed genes as follows. The quality of the reads was analyzed using FastQC (Galaxy Version 0.72+galaxy1). The quality check reports were aggregated using MultiQC (Galaxy Version 1.9+galaxy1). Cutadapt (Galaxy Version 1.16.6) was used for adapter removal and filtering using threshold of minimum read length 20 and minimum quality (phred score) 20. Again, the quality was checked, and results were aggregated. The cleaned reads were mapped to a reference genome (Homo_sapiens.GRCh38.dna_sm.primary_assembly.fa.gz) and annotation file (Homo_sapiens.GRCh38.104.gtf.gz) using HISAT2 (Galaxy Version 2.1.0+galaxy7), a splice-aware alignment program. The output bam files are processed using StringTie (Galaxy Version 2.1.1) to assemble and quantitate RNA-Seq alignments into potential transcript. Later the Deseq2 (Galaxy Version 2.11.40.6+galaxy1) was used to determine normalized differentially expressed genes from the Stringtie output count tables. […] These differentially expressed genes were filtered using Filter (Galaxy Version 1.1.1) to extract significant ones by adding a filter of q-value<=0.05 and log 2 fold change >1.
The functional annotation (biological process, molecular function and pathways) was considered significant at False discovery rate (FDR B&H)<0.05. GSEA Preranked tool of standalone R program GSEA 4.1.0 was used to perform Gene Set Enrichment Analysis (GSEA) on ranked (log fold change based) list of total DEGs against CP: Canonical pathways (a pre-defined collection of 2922 gene sets) of Molecular Signatures Database (MSigDB). The enriched pathways with FDR qvalue less than 0.25 were considered significant.

caspase-3 = test: Assay of caspase 3 (fluorometric, cell lysates); assay type: cell-based, human; conditions: MDA MB 231 cell lysates, DEVD-AFC
Experimental: as §1

MDA MB 231 cells [4] = test: Colony formation assay; assay type: cell-based, human; conditions: 48 hr pretreatment, 14 days
Experimental: The pretreated cells with different concentrations of NIIST-AC-1 for 48 hr were plated in six well plates and allowed to grow and colonize for 14 days. The colonies were stained with crystal violet for 2 hr after fixing with acetic acid and methanol. The visible colonies were photographed and the colon area was quantified using ImageJ 1.52p software.

MDA MB 231 cells [5] = test: Glucose uptake study (2-NBDG, FACS); assay type: cell-based, human
Experimental: The effect of NIIST-AC-1 on the uptake of glucose was analyzed by flow cytometry using 2-NBDG. After incubation of the cells with different concentrations of NIIST-AC-1, the cell culture medium was replaced with medium containing fluorescent 2-NBDG and incubated for 30 minutes. Then the samples were analyzed using BD FACSAria II (BD Biosciences) at FITC range (excitation, 465 nm; emission 540-nm bandpass filter). The mean fluorescence intensities of different groups were analyzed by BD FACSDiva ver 6.1.3 software and corrected for autofluorescence from unlabeled cells.

MDA MB 231 cells [6] = test: Nuclear fragmentation by DAPI staining; assay type: cell-based, human; conditions: MDA MB 231, DAPI staining, 24 hr
Experimental: Fragmentation of the nucleus on treatment with NIIST-AC-1 was analyzed using the cell permeable dye which binds to AT rich sequences in the minor groove of DNA. After treatment in 96 well culture plates for 24 hr, the cells were stained with DAPI for 20 min. The morphology of the stained nucleus was observed using a spinning disc fluorescent microscope at an excitation/emission of 360/460 nm (BD Pathway™ 855; Biosciences), and images were taken using the software BD Atto Vision™ version 1.6.

[7] = system: histone deacetylase 1 (HDAC-1); test: HDAC inhibition assay (colorimetric, cell lysates); assay type: biochemical, human; conditions: enzyme assay, MDA MB 231 cell lysates
Experimental: The histone deacetylase inhibitory activity was measured in the cell lysates using the colorimetric assay kit where we have used the substrate Ac-Lys (Ac)-pNA and trichostatin A as the positive control. After the reaction, the absorbance was measured at 400 nm and the percentage inhibition was calculated by comparing with the deacetylated standard Ac-Lys-pNA.

MDA MB 231 cells [8] = test: Growth inhibitory study of I-8 in combination with paclitaxel; assay type: cell-based, human; conditions: 5 μM I-8 in combination with paclitaxel
[9] = whole transcriptome, q-value<=0.05 and log 2 fold change >1

Question: `COc1cc(-c2cc(C(=O)NCc3cc(C(F)(F)F)cc(C(F)(F)F)c3)[nH]n2)cc(OC)c1OC` [I-8, N-(3,5-bis(trifluoromethyl)benzyl)-3-(3,4,5-trimethoxyphenyl)-1H-pyrazole-5-carboxamide] was tested. Which “morphological changes of the cells” value (MDA MB 231 cells [1]) did it give?
Answer: significant morphological changes

Question: What about the mitochondrial membrane potential (MDA MB 231 cells [2]) of the same compound?
Answer: loss of mitochondrial membrane potential

Question: And the “caspase 9 activity” value (caspase-9)?
Answer: upregulated caspase activity

Question: What about the “downregulated signaling pathways (gene set enrichment analysis)” value (MDA MB 231 cells [3]; downregulated genes vs canonical gene sets) of the same compound?
Answer: downregulated many signaling pathways that are critical in the cell death process

Question: What about the “upregulated signaling pathways (gene set enrichment analysis)” value (MDA MB 231 cells [3]; upregulated genes vs canonical gene sets) of the same compound?
Answer: upregulation of signaling pathways of ER stress induced apoptosis, UPR response, autophagy, HDAC acetylation

Question: And the “number of downregulated genes” value (MDA MB 231 cells [3]; [9])?
Answer: 1642 genes

Question: What about the “number of upregulated genes” value (MDA MB 231 cells [3]; [9]) of the same compound?
Answer: 1337 genes

Question: What about the “caspase 3 activity” value (caspase-3) of the same compound?
Answer: upregulated caspase activity

Question: And the colony formation (MDA MB 231 cells [4])?
Answer: inhibition of colony formation

Question: And the glucose uptake (MDA MB 231 cells [5])?
Answer: significant reduction in the uptake of glucose

Question: What about the nuclear fragmentation (MDA MB 231 cells [6]) of the same compound?
Answer: significant nuclear fragmentation

Question: What about the HDAC inhibitory activity [7] of the same compound?
Answer: significant inhibition; also recorded: substantial histone deacetylase 1 (HDAC-1) inhibitory activity

Question: What about the “lowering of paclitaxel concentration required for 50% growth inhibition” value (MDA MB 231 cells [8]) of the same compound?
Answer: 10 times
